Test results as given in ChEMBL document CHEMBL1136408, “Structure-activity and crystallographic analysis of benzophenone derivatives-the potential anticancer agents” (Bioorg Med Chem Lett, 2003).

Tests used:
KB [1] = experiment: Inhibitory concentration against taxol resistant cell line (KBs5) at a concentration of 50 nM using tetrazolium dye reduction assay (MTT); assay type: functional, cell-based; conditions: Homo sapiens
KB [2] = experiment: Inhibitory concentration against camptothecin (CPT) resistant cell line (KB-100) using tetrazolium dye reduction assay (MTT); assay type: functional, cell-based; conditions: Homo sapiens
KB [3] = experiment: Inhibitory concentration against human oral cancer cell line (KB) using tetrazolium dye reduction assay (MTT); assay type: functional, cell-based
HONE1 cell line = experiment: Inhibitory concentration against human NPC cancer cell line using tetrazolium dye reduction assay (MTT); assay type: functional, cell-based
KB [4] = experiment: Inhibitory concentration against VP16 resistant cell line (KB-7D) using tetrazolium dye reduction assay (MTT); assay type: functional, cell-based; conditions: Homo sapiens
CPT30 cell line = experiment: Inhibitory concentration against camptothecin (CPT) resistant cell line using tetrazolium dye reduction assay (MTT); assay type: functional, cell-based; conditions: Homo sapiens
KB [5] = experiment: Inhibitory concentration against vincristine-resistant cell line (KB-Vin 10) using tetrazolium dye reduction assay (MTT); assay type: functional, cell-based; conditions: Homo sapiens
KB 3-1 [6] = experiment: Compound was tested for cell arrest at G2/M phase at 25 nM concentration in KB human cancer cells; assay type: functional; conditions: read-out: Inhibition
KB 3-1 [7] = experiment: Compound was tested for cell arrest at G2/M phase at 50 nM concentration in KB human cancer cells; assay type: functional; conditions: read-out: Inhibition
KB 3-1 [8] = experiment: Compound was tested for cell arrest at S phase at 25 nM concentration in KB human cancer cells; assay type: functional; conditions: read-out: Inhibition
KB 3-1 [9] = experiment: Compound was tested for cell arrest at S phase at 50 nM concentration in KB human cancer cells; assay type: functional; conditions: read-out: Inhibition
KB 3-1 [10] = experiment: Compound was tested for cell arrest at sub-G1 phase at 50 nM concentration in KB human cancer cells; assay type: functional; conditions: read-out: Inhibition
KB 3-1 [11] = experiment: Compound was tested for cell arrest at G2/M phase at 100 nM concentration in KB human cancer cells; assay type: functional; conditions: read-out: Inhibition
KB 3-1 [12] = experiment: Compound was tested for cell arrest at Go/G1 phase at 100 nM concentration in KB human cancer cells; assay type: functional; conditions: read-out: Inhibition
KB 3-1 [13] = experiment: Compound was tested for cell arrest at S phase at 100 nM concentration in KB human cancer cells; assay type: functional; conditions: read-out: Inhibition
KB 3-1 [14] = experiment: Compound was tested for cell arrest at sub-G1 phase at 25 nM concentration in KB human cancer cells; assay type: functional; conditions: for Percent of cells arrested in sub-G1 phase at 0.025 µM: Homo sapiens, KB 3-1, read-out: Inhibition
KB 3-1 [15] = experiment: Compound was tested for cell arrest at Go/G1 phase at 25 nM concentration in KB human cancer cells; assay type: functional; conditions: read-out: Inhibition
KB 3-1 [16] = experiment: Compound was tested for cell arrest at sub-G1 phase at 100 nM concentration in KB human cancer cells; assay type: functional; conditions: read-out: Inhibition
KB 3-1 [17] = experiment: Compound was tested for cell arrest at Go/G1 phase at 50 nM concentration in KB human cancer cells; assay type: functional; conditions: read-out: Inhibition

IC50 (KB [1]) | IC50 (KB [2]) | IC50 (KB [3]) | IC50 (KB [4]) | IC50 (KB [5]) | Compound | IC50 (HONE1 cell line) | IC50 (CPT30 cell line) | percent of cells arrested in G2/M phase at 0.025 µM (KB 3-1 [6]) | Cells arrested in G2/M phase (%) at 0.05 µM (KB 3-1 [7]) | Cells arrested in S phase (%) at 0.025 µM (KB 3-1 [8]) | percent of cells arrested in S phase at 0.05 µM (KB 3-1 [9]) | Cells in sub-G1 phase at 0.05 µM (KB 3-1 [10]) | percent of cells arrested in G2/M phase at 0.1 µM (KB 3-1 [11]) | percent cells arrested in G0/G1 phase at 0.1 µM (KB 3-1 [12]) | Cells arrested in S phase at 0.1 µM (KB 3-1 [13]) | Percent of cells arrested in sub-G1 phase (KB 3-1 [14]) | percent of cells in G0/G1 phase at 0.025 µM (KB 3-1 [15]) | Percent of cells in sub-G1 phase at 0.1 µM (KB 3-1 [16]) | % cells in G0/G1 phase at 0.05 µM (KB 3-1 [17]) | Percent of cells arrested in sub-G1 phase at 0.025 µM (KB 3-1 [14])
2290 nM | 7160 nM | 6080 nM | 5410 nM | 5850 nM | CNc1ccc(Cl)cc1C(=O)c1cc(OC)c(OC)c(OC)c1 | 5140 nM | 5350 nM | – | – | – | – | – | – | – | – | – | – | – | – | –
71 nM | 156 nM | 90.4 nM | 104 nM | 97.2 nM | COc1cc(C(=O)c2cc(Cl)ccc2N)cc(OC)c1OC | 64.5 nM | 60.3 nM | 17.3% | 17.3% | 14.3% | 14.6% | 6.4% | 73.2% | 5.7% | 7.1% | 6.5% | 61.7% | 13.9% | 61.7% | –
25.6 nM | 18.9 nM | 25.8 nM | 29.3 nM | 45.8 nM | COc1ccc(C(=O)c2cc(OC)c(OC)c(OC)c2)c(N)c1 | 35.8 nM | 37.3 nM | – | – | – | – | – | – | – | – | – | – | – | – | –
4550 nM | 4070 nM | 5460 nM | 5450 nM | 8340 nM | COc1cc(C(=O)c2cc(Cl)ccc2O)cc(OC)c1OC | 6110 nM | 5000 nM | 18.3% | 18.9% | 14.6% | 15.9% | 5.7% | 16% | 45.4% | 11.8% | – | 61.8% | 26.5% | 59.4% | 5.3%
34.7 nM | 22.5 nM | 38.5 nM | 38.1 nM | 48.6 nM | COc1ccc(N)c(C(=O)c2cc(OC)c(OC)c(OC)c2)c1 | 59.2 nM | 41 nM | – | – | – | – | – | – | – | – | – | – | – | – | –
184 nM | 34.8 nM | 129 nM | 180 nM | 34.1 nM | COc1ccc(C(=O)c2cc(OC)c(OC)c(OC)c2)cc1O [PHENSTATIN] | 138 nM | 37.2 nM | 39.6% | 63.9% | 9.9% | 10.5% | 17.8% | 73.5% | 5.6% | 7.7% | – | 17.6% | 13% | 7.6% | 32.9%

Compound | IC50 (KB [1]) | IC50 (KB [2]) | IC50 (KB [3]) | IC50 (KB [4]) | IC50 (KB [5]) | IC50 (HONE1 cell line) | IC50 (CPT30 cell line) | percent of cells arrested in G2/M phase at 0.025 µM (KB 3-1 [6]) | Cells arrested in G2/M phase (%) at 0.05 µM (KB 3-1 [7]) | Cells arrested in S phase (%) at 0.025 µM (KB 3-1 [8]) | percent of cells arrested in S phase at 0.05 µM (KB 3-1 [9]) | Cells in sub-G1 phase at 0.05 µM (KB 3-1 [10]) | percent of cells arrested in G2/M phase at 0.1 µM (KB 3-1 [11]) | percent cells arrested in G0/G1 phase at 0.1 µM (KB 3-1 [12]) | Cells arrested in S phase at 0.1 µM (KB 3-1 [13]) | Percent of cells arrested in sub-G1 phase (KB 3-1 [14]) | percent of cells in G0/G1 phase at 0.025 µM (KB 3-1 [15]) | Percent of cells in sub-G1 phase at 0.1 µM (KB 3-1 [16]) | % cells in G0/G1 phase at 0.05 µM (KB 3-1 [17]) | Percent of cells arrested in sub-G1 phase at 0.025 µM (KB 3-1 [14])
COc1ccc(/C=C\c2cc(OC)c(OC)c(OC)c2)cc1O [COMBRETASTATIN A4] | 7 nM | 7.3 nM | 6.2 nM | 7.9 nM | 9.5 nM | 6.5 nM | 6.9 nM | 61.6% | 63.2% | 11% | 10.6% | 16.8% | 72.3% | 5.2% | 10.6% | – | 8.9% | 11.6% | 9.3% | 18.3%
